Legend:
[1] = target: uACC (Ustilago maydis ACC) (Ustilago maydis, UniProt A0A0D1DYD5); assay: [14C]bicarbonate incorporation assay, overall ACC activity; assay type: biochemical
hACC2 = target: T1, hACC2 (Homo sapiens, UniProt O00763); assay: as above; assay type: biochemical; settings: recombinant hACC2, overall ACC activity
T1 construct: delete amino acids 1-148 and add Met-Gly in front of Lys149 in the final product; His tag (C); made in house; host or cells: baculovirus, Sf9 insect cells
Procedure: (§1) In vitro IC50 values of human ACC were determined using recombinant enzyme produced by standard procedures. For example, full-length cDNAs for both the human isoforms (hACC1 and hACC2) were each cloned and expressed as a recombinant protein using a baculovirus system. Double stranded cDNA from human fetal liver (Quick-Clone cDNA, cat. #7171-1) was purchased from BD/Clontech (Mt. View, Calif.). PCR primers were designed for full-length hACC1 and hACC2 using GenBank submissions AY237919 and AJ575592, respectively. The Advantage GC 2 PCR kit (BD/Clontech) was used for amplification. The PCR products (about 7 Kb) were TOPO-cloned into the pCR4Blunt vector (Invitrogen, Carlsbad, Calif.), and 6 clones of each gene were isolated. […] Full length versions of the two cDNAs corresponding to their respective Genbank sequences were assembled in pBluescript SK+ (Stratagene, La Jolla, Calif.) by combining error-free fragments from the PCR clones. The resulting hACC1 clone, designated pCS35, has six silent nucleotide differences compared to Genbank accession AY237919. The final hACC2 clone, designated pCS36, has ten silent nucleotide differences compared to Genbank accession AJ575592. Primers were designed to PCR amplify the cDNAs along with the in-frame 3′-his tag sequences from the pET vector and TOPO-cloned the resulting products into the Gateway® entry vector pENTR/D-TOPO. The ACC2 primers were designed to delete amino acids 1-148 and add Met-Gly in front of Lys149 in the final product. The resulting entry clones were transferred to BaculoDirect™ linear DNA (Invitrogen corp.) using the Gateway® LR recombination reaction. The recombinant baculovirus DNA was transfected into insect cells and viral amplification was performed according to the manufacturer's protocols. For protein expression sf9 cells were infected with a P3 viral stock in the presence of 50 uM biotin. The cells were harvested after 48-72 hr, lysed by sonication, and the resulting extract was clarified by centrifugation. ACC in the crude extract was concentrated by ammonium sulfate precipitation (40% w/v) and purified by Ni^2+-NTA chromatography (Novagen) followed by anion exchange chromatography on a UNO-Q column (BioRad).
(§2) Overall ACC activity in the hACC preparations is measured by following incorporation of [^14C]bicarbonate into […] essentially as described (Thumpy and Wakil, J Biol Chem 260, 6318-6323 (1985). Briefly, the reaction mixture (50 μL) contains: 50 mM Hepes (pH7.4), 20 mM K-Citrate, 20 mM Mg-Acetate 1.5 mM MgSO4, 2 mM DTT, 2 mM acetyl-CoA, 12 mM NaHCO3, 0.2 mM NaH^14CO3 (˜50 mCi/mmol), 0.01% (v/v) Triton X-100, 0.75 mg/mL BSA, 1% (v/v) DMSO (with or without inhibitor), and 0.3 μg (hACC1) or 0.15 μg (hACC2) enzyme. Reactions are initiated by the addition of ATP to a final concentration 2 mM. After 10 minutes at 37° C., the reaction is stopped by the addition of 2N HCl (50 μL). The samples are evaporated in a hood overnight, resuspended in H2O (200 μL), and incorporated label is quantified by scintillation counting in scintillation cocktail (3 mL). Inhibition data are fit to dose-response curves and IC50 values are reported (i.e. the concentration of inhibitor that gives 50% inhibition).

hACC1 = target: T2, hACC1 (Homo sapiens, UniProt Q13085); assay: as above; assay type: biochemical; settings: recombinant hACC1, overall ACC activity
T2 construct: PCR primers were designed for full-length hACC1 and hACC2 using GenBank submissions AY237919 and AJ575592, respectively; His tag (C); made in house; host or cells: baculovirus, Sf9 insect cells
Procedure: as §1, §2

[2] = system: HCT-116 human colon cancer cells; assay: MTT Cell Proliferation Assay; assay type: cell-based; settings: 72 hours, read-out: Percent of Control HCT-116
Procedure: (§3) The anti-proliferative activity of test compounds against human tumor cell lines is evaluated in vitro using the ATCC's MTT Cell Proliferation Assay (Catalog No. 30-100K). Cell lines are grown using media, serum, and culture conditions recommended by the ATCC. Stock cultures are allowed to grow to 70-80% confluence. Cells are seeded into 96-well culture plates at a predetermined density on day 0 in complete medium (0.1 mL). Plates are placed in a humidified incubator at 37° C. with 5% CO2 and 95% HEPA filtered room air for 24 hours. At this point compound (0.1 mL of 2× stock (in media)) is added to the indicated wells and the plates are returned to the incubator for 72 hours. Cell proliferation is measured by addition of MTT reagent to each well and incubated for an additional 4 hours, followed by addition of cell lysis/MTT solublization reagent and incubating overnight. […] Results are expressed as percent of control cells versus compound concentration. Compounds of the present invention, and salts thereof, were evaluated for anti-proliferative activity as described above.

[3] = system: A2780 human ovary cancer cells; assay: MTT Cell Proliferation Assay; assay type: cell-based; settings: 72 hours, read-out: Percent of Control A2780
Procedure: as §3

[4] = system: PC-3 human prostate cancer cells; assay: MTT Cell Proliferation Assay; assay type: cell-based; settings: 72 hours, read-out: Percent of Control PC-3
Procedure: as §3

[5] = system: MDA-MB-231 human breast cancer cells; assay: MTT Cell Proliferation Assay; assay type: cell-based; settings: 72 hours, read-out: Percent of Control MDA-MB-231
Procedure: as §3

T1 sequence (O00763 149-2458 limits assumed): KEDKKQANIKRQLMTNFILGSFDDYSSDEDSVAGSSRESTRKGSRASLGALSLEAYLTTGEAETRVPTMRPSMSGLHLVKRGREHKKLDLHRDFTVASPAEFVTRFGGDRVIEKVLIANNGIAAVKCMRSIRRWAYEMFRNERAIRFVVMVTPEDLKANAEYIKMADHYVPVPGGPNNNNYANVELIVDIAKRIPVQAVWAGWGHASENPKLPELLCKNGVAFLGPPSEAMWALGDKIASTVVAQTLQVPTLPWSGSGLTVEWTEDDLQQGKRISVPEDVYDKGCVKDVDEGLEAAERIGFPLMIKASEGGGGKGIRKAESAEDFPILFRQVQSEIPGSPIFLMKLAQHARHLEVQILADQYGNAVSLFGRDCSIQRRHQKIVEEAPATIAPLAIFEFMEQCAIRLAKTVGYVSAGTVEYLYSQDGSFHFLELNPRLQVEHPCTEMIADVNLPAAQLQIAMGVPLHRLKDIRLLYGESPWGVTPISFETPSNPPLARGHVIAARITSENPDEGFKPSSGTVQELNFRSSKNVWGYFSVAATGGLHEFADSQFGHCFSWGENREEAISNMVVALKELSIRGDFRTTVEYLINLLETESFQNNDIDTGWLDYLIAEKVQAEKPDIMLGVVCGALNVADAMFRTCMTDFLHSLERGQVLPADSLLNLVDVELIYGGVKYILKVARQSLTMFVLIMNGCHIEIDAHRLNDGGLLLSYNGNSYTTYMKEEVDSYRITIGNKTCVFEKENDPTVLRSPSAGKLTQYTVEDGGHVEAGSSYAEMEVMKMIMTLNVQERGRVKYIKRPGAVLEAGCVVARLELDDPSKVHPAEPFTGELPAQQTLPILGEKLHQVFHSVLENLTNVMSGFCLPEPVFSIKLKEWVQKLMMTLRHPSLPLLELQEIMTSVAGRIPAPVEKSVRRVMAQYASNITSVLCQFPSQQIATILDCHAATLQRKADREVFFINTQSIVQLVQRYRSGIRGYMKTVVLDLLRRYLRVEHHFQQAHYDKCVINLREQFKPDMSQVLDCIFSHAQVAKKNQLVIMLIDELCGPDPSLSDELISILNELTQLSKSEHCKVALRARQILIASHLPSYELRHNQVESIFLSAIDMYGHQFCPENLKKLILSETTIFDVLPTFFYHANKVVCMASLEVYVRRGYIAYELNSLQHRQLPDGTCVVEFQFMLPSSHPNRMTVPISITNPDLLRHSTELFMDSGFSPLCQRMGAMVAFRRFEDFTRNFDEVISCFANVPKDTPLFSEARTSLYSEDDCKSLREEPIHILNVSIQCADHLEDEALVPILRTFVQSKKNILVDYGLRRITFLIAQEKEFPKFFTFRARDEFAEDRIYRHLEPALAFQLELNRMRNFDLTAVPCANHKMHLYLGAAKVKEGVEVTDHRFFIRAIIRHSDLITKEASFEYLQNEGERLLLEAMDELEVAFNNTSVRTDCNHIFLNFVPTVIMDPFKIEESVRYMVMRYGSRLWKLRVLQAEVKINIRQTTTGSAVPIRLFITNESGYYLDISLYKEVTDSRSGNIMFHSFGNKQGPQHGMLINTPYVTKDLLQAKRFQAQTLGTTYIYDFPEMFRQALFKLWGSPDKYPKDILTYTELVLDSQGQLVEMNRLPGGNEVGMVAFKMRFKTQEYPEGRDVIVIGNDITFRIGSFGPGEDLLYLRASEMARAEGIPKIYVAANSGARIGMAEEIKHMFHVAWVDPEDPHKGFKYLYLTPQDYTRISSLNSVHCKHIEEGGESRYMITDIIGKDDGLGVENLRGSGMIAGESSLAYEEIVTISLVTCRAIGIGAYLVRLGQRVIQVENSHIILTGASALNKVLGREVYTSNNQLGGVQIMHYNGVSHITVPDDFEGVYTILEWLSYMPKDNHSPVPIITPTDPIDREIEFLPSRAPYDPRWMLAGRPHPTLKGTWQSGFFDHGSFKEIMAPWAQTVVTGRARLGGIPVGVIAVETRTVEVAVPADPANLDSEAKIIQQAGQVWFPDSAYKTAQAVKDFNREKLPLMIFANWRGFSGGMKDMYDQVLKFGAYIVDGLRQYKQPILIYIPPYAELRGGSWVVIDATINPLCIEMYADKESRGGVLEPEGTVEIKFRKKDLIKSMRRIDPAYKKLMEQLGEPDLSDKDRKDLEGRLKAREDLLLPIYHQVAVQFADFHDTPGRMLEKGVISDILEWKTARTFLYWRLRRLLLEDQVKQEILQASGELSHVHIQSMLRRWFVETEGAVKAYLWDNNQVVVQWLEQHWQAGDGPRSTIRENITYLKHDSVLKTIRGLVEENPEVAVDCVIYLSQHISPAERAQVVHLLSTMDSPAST
uACC (Ustilago maydis ACC), sequence (A0A0D1DYD5 entry or part of it): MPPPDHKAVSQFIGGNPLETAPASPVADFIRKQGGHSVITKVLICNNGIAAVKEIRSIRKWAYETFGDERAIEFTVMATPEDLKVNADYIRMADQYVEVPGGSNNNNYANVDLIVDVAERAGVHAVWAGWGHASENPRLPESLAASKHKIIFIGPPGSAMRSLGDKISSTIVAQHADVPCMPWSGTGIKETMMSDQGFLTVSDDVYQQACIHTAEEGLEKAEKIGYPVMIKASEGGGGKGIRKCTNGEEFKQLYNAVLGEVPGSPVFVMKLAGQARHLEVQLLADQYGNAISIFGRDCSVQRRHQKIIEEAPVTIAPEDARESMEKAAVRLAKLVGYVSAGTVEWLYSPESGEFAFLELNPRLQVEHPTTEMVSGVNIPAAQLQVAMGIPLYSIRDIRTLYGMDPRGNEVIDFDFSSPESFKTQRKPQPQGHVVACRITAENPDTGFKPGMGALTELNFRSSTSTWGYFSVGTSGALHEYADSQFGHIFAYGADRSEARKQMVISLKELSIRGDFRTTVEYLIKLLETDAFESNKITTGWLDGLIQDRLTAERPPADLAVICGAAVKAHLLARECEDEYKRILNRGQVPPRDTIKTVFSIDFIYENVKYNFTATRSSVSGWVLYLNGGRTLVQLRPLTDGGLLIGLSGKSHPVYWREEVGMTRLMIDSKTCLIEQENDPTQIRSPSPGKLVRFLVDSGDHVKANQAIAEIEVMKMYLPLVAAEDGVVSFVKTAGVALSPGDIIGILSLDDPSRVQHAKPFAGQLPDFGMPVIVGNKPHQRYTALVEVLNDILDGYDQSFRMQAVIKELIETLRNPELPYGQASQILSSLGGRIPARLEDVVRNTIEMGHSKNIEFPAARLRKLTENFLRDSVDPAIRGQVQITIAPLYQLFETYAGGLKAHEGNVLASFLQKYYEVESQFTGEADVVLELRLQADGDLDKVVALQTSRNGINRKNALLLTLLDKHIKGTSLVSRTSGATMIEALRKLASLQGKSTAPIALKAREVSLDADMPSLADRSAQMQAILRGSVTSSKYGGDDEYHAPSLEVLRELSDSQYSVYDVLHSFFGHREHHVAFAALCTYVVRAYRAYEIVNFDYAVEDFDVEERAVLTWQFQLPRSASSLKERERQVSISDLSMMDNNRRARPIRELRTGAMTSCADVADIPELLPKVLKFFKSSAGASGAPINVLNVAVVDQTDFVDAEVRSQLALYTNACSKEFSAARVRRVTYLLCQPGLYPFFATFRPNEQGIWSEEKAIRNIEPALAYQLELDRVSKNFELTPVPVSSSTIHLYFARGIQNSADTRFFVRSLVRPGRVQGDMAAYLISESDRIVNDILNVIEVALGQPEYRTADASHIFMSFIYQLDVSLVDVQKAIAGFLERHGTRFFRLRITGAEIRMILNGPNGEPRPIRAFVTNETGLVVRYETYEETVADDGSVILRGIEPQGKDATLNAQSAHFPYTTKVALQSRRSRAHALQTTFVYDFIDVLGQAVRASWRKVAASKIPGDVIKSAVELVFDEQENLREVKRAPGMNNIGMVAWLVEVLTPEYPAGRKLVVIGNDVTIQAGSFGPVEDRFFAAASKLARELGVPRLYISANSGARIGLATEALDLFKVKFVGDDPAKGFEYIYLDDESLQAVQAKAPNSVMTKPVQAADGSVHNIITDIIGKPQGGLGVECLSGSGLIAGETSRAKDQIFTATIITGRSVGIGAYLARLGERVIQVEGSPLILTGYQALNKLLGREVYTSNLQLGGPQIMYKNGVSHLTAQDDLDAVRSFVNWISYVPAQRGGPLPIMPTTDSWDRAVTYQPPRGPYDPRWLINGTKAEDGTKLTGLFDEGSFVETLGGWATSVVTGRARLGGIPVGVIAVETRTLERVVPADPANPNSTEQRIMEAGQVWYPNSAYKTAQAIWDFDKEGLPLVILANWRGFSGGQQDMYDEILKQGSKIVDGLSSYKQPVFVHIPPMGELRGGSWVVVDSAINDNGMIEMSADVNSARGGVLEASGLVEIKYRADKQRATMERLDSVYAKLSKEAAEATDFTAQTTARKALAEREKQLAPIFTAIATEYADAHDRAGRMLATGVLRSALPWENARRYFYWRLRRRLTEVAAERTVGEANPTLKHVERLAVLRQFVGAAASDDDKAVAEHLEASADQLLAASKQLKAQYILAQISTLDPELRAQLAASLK

Row | Compound | IC50 [1] | IC50 (hACC2) | IC50 (hACC1) | activity at 3.3 µM [2] | activity at 10 µM [2] | activity at 3.3 µM [3] | activity at 10 µM [3] | activity at 3.3 µM [4] | activity at 10 µM [4] | activity at 3.3 µM [5] | activity at 10 µM [5]
1 | O=C1NC2(CCN(C(=O)c3sc4ccccc4c3Cl)CC2)Oc2ccc(Br)cc21 [Compound 1, 6-Bromo-1′-[(3-chlorobenzothien-2-yl)carbonyl]spiro[2H-1,3-benzoxazine-2,4′-piperidine]-4(3H)-one] | 160000 nM | 5400 nM | 6000 nM |  |  |  |  |  |  |  | 
2 | Cc1nn(C)c2sc(C(=O)N3CCC4(CC3)NC(=O)c3cc(Br)ccc3O4)cc12 [Compound 4, 6-Bromo-1′-{(1,3-dimethyl-1H-thieno[2,3-c]pyrazol-5-yl)carbonyl} spiro[2H-1,3-benzoxazin-2,4′-piperidin]-4-(3H)-one] | 50000 nM | 2900 nM | 2800 nM |  |  |  |  |  |  |  | 
3 | COc1cc2c(OC)cccc2cc1C(=O)N1CCC2(CC1)NC(=O)c1cc(Br)ccc1O2 [Compound 3, 6-Bromo-1′-[(3,5-dimethoxynaphth-2-yl)carbonyl]spiro[2H-1,3-benzoxazine-2,4′-piperidine]-4(3H)-one] | 90000 nM | 290 nM | 860 nM |  |  |  |  |  |  |  | 
4 | CCOc1ccc2c(c1)C(=O)NC1(CCN(C(=O)c3cc(OC)c4cccc(OC)c4n3)CC1)O2 [Compound 139] | 20000 nM | 33 nM | 50 nM | 68.4% | 49.9% | 85.9% | 60.1% | 57% | 54.7% | 70.3% | 46.4%
5 | COc1cc(C(=O)N2CCC3(CC2)NC(=O)c2cc(NC(C)=O)ccc2O3)nc2c(C3CC3)cccc12 [Compound 33] | 19300 nM | 51 nM | 73 nM |  |  |  |  |  |  |  | 
6 | COc1ccc2c(c1)C(=O)NC1(CCN(C(=O)c3cc(OC)c4cccc(OC)c4c3)CC1)O2 [Compound 152, 1′-[(4,8-Dimethoxynaphth-2-yl)carbonyl]-6-methoxyspiro[2H-1-1,3-benzoxazin-2,4′-piperidin]-4-(3H)-one] |  | 3 nM | 4 nM | 53.3% | 42% | 84.1% | 56.9% | 88% |  | 57% | 25.7%
7 | COc1cc(C(=O)N2CCC3(CC2)NC(=O)c2cc(Br)ccc2O3)cc2c(OC)cccc12 [Compound 30, 6-Bromo-1′-[(4,8-dimethoxynaphth-2-yl)carbonyl]spiro[2H-1,3-benzoxazin-2,4′-piperidin]-4-(3H)-one] | 20000 nM | 17 nM | 16 nM |  |  |  |  |  |  |  | 
8 | O=C1NC2(CCN(C(=O)c3cc4c(Cl)cccc4s3)CC2)Oc2ccc(Br)cc21 [Compound 5, 6-Bromo-1′-[(4-chlorobenzthien-2-yl)carbonyl]spiro[2H-1,3-benzoxazin-2,4′-piperidin]-4-(3H)-one] | > 135000 nM | 2100 nM | 4500 nM |  |  |  |  |  |  |  | 
9 | COc1ccc(OC)c2[nH]c(C(=O)N3CCC4(CC3)NC(=O)c3cc(OC(C)C)ccc3O4)cc12 [Compound 184] |  | 400 nM | 480 nM | 65.5% | 40.4% | 90% | 44.7% | 81.3% | 64.6% | 75.8% | 46.1%
10 | CCOc1ccc2c(c1)C(=O)NC1(CCN(C(=O)c3cc(OC)c4cccc(OC)c4c3)CC1)O2 [Compound 146, 1′-[(4,8-Dimethoxynaphth-2-yl)carbonyl]-6-ethoxyspiro[2H-1,3-benzoxazin-2,4′-piperidin]-4-(3H)-one] | 3000 nM | 4 nM | 5 nM |  |  |  |  |  |  |  | 
11 | COc1ccc(-c2cc(C(=O)N3CCC4(CC3)NC(=O)c3ccccc3O4)n[nH]2)cc1 [Compound 87, 1′-[5-(4-Methoxyphenyl)-1(H)-pyrazol-3-ylcarbonyl]spiro[2H-1,3-benzoxazin-2,4′-piperidin]-4-(3H)-one] | 220000 nM | 12000 nM | 9700 nM |  |  |  |  |  |  |  | 
12 | COc1ccc2cc3c(cc2c1)C(=O)NC1(CCN(C(=O)c2cc(OC)c4cccc(OC)c4n2)CC1)O3 [Compound 164] |  | 4 nM | 4 nM | 54% | 43.5% | 73.1% | 46% | 68% |  | 47.6% | 13.9%
13 | COc1cc(C(=O)N2CCC3(CC2)NC(=O)c2cc(C)ccc2O3)cc2c(OC)cccc12 [Compound 145, 1′-[(4,8-Dimethoxynaphth-2-yl)carbonyl]-6-methylspiro[2H-1,3-benzoxazin-2,4′-piperidin]-4-(3H)-one] | 5200 nM | 7 nM | 11 nM |  |  |  |  |  |  |  | 
14 | COc1ccc2c(c1)C(=O)NC1(CCN(C(=O)c3[nH]c4c(OC)cccc4c3C)CC1)O2 [Compound 151] |  | 96 nM | 82 nM | 78.6% | 61.8% | 92.7% | 64% | 86.1% | 68.5% | 82.9% | 50.1%
